{
  "source": "patent US20220175862A1",
  "about": "“CO-ADMINISTRATION COMPOSITION FOR PREVENTING OR TREATING HYPERCHOLESTEROLEMIA, CONTAINING BALLOON-FLOWER EXTRACT OR PLATYCODIN D DERIVED THEREFROM AS ACTIVE INGREDIENT” (University-Industry Cooperation Group of Kyung Hee …, priority 2019, published 2022)",
  "key": {"[1]": {"system": "LDLR protein", "experiment": "LDLR protein stability after cycloheximide (CHX) treatment, Western blot", "type": "cell-based", "conditions": "PD 2.5 μM 24 h, then 100 μg/mL CHX", "experimental": "(§1) Cells were treated with PD and PG for 24 h. Proteins were separated on 10% SDS-PAGE and transferred to nitrocellulose membranes. The membranes were incubated overnight at 4° C. For reference, anti-LDLR, Mylip/IDOL and LXRα were purchased from Abcam (Cambridge, UK), and anti-GAPDH was purchased from Cell Signaling (MA, USA). Further, anti-PCSK9 was purchased from Proteintech (Chicago. USA). The blots were then incubated with HRP-conjugated secondary antibody for 1 h at room temperature and measured using a Pierce ECL Western Blotting Substrate (Thermo Scientific, MA, USA).\nConsidering that IDOL mRNA is decreased upon PG and PD treatment, it could be inferred that PG and PD are able to enhance LDLR protein stability. Therefore, LDLR protein levels remaining after treatment with cycloheximide (CHX) which blocks new protein synthesis were examined."}, "[2]": {"system": "hypercholesterolemia-induced rat", "conditions": "cited from earlier work"}, "[3]": {"system": "HepG2 cells", "experiment": "Cell viability assay (WST)", "type": "cell-based", "conditions": "24 h", "experimental": "Cells were dispensed in a 96-well plate and treated with PG (10 μg/mL, 50 μg/mL, 100 μg/mL, 250 μg/mL, 500 μg/mL) or PD (1 μM, 2.5 μM, 5 μM) for 24 h. After incubation, a WST solution (Daeillab Service, Co., Seoul, Korea) was added to each well and further incubated for 2 h. Next, water-soluble formazan in the medium was measured at 450 nm using an ELISA reader (Molecular Devices, Palo Alto, Calif.).\nTo investigate whether PG and PD display cytotoxic effects on HepG2 cells, cell viability was examined by WST1 assay following treatment with different concentrations of PG (10 μg/mL, 50 μg/mL, 100 µg/mL, 250 μg/mL, 500 μg/mL) or PD (1 μM, 2.5 μM, 5 μM). […] However, when high concentrations of 500 μg/mL of PG and 5 μM of PD were treated, cell viability was measured as 85% and 86%, respectively."}, "[4]": {"system": "PCSK9", "experiment": "PCSK9 Western blot", "type": "cell-based", "conditions": "24 h, indicated concentrations", "experimental": "as §1"}, "[5]": {"system": "LDLR expression in HepG2 cells", "experiment": "LDLR protein expression by Western blot", "type": "cell-based", "conditions": "24 h", "experimental": "as §1\nThere is a report that LDLR mediates the uptake of LDL-induced cholesterol from plasma, lowering blood cholesterol levels. Therefore, it was examined whether PG and PD upregulate LDLR expression in HepG2 cells.\nGenerally, statins are widely used for lowering blood levels of LDL-C, because they upregulate hepatic LDLR expression and enhance the uptake of LDL-C in the blood. To investigate whether PG and PD have a synergistic effect with statins on LDLR expression, HepG2 cells were treated with PG or PD together with simvastatin for 24 h, and then the expression levels of LDLR were examined by Western blotting."}, "[6]": {"system": "LDL uptake in HepG2 cells", "experiment": "LDL uptake assay (BODIPY-FL-LDL, confocal microscopy)", "type": "cell-based", "conditions": "PD 2.5 μM 24 h, then BODIPY-LDL 1 h", "experimental": "Cells were dispensed in a 24-well plate and treated as described above. After treatment with drugs, the culture medium was removed and replaced with 5 μg/mL of BODIPY-FL-LDL (Invitrogen, CA, USA) at 37° C. for 1 h. The cells were washed with PBS containing 0.3% BSA and fixed with 4% paraformaldehyde (PFA) for 10 min. Nuclei were stained with 1 μg/mL of DAPI in 2% BSA for 1 min and analyzed using confocal microscopy.\nThen, confocal microscopy was performed."}, "[7]": {"system": "LDLR mRNA in HepG2 cells", "experiment": "LDLR mRNA expression by RT-PCR", "type": "cell-based", "conditions": "PD 1 μM, 2.5 μM, 24 h", "experimental": "(§2) Cells were dispensed in a 6-well plate, and treated with PD or PG for 24 h, and then total RNA was extracted using an R&A-BLUE Total RNA extraction kit (iNtRON Biotechnology, Inc., Korea). Next, complementary DNA (cDNA) was synthesized from 1 μg of RNA using a PrimeScript 1 st strand cDNA Synthesis Kit (Takara Biotechnology, Dalian. Liaoning, China). RT-PCR was performed with a Maxime PCR PreMix Kit (i-StarTaq) (iNtRON Biotechnology, Inc., Korea). Sequences of primers used herein are as in Table 1, and GAPDH was used as an internal control.\nTo define molecular mechanisms underlying the increased LDLR expression by PG and PD treatment, the effects of PG and PD on expression of genes including IDOL and PCSK9, which are known to regulate LDLR protein levels, were first examined."}, "[8]": {"system": "cell surface LDLR in HepG2 cells", "experiment": "Cell surface LDLR analysis by flow cytometry", "type": "cell-based", "conditions": "2.5 μM of PD, 24 h", "experimental": "Cells were treated as described above for 24 h, harvested, and then incubated at 37° C. for 30 min with anti-LDLR (Abcam, Cambridge, UK) diluted at 1:60 in PBS containing 5% BSA. The cells were washed with 1% BSA in PBS and incubated with Alexa Fluor 488-conjugated goat anti-rabbit IgG (Invitrogen, CA, USA) using a 1:250 dilution at 37° C. for 30 min. The cells were fixed with 0.5% PFA for 10 min, resuspended in PBS, and measured by flow cytometry (FACSCalibur, BD Biosciences, San Jose, Calif., USA). Data were analyzed using a CellQuest Pro software (BD Biosciences, USA).\nNext, FACS analysis was performed to examine whether PG and PD increase LDLR expression on cell surface."}, "[9]": {"system": "IDOL mRNA in HepG2 cells", "experiment": "IDOL mRNA expression by RT-PCR", "type": "cell-based", "experimental": "as §2\nTo examine whether PD suppresses IDOL mRNA expression, co-treatment of T0901317 (LXR agonist) and PD was performed for 24 h. The LXR is a transcription factor that activates a target gene involved in lipid and cholesterol homeostasis, and IDOL is a representative target gene of LXR. In addition. T0901317 increases the expression of IDOL by binding to LXR."}, "[10]": {"system": "LXRα", "experiment": "LXRα protein expression by Western blot", "type": "cell-based", "conditions": "PD 1 μM, 2.5 μM, 5 μM, 24 h", "experimental": "as §1"}},
  "data": [
    {"smiles": "C[C@@H]1O[C@@H](O[C@H]2[C@H](OC(=O)[C@]34CCC(C)(C)C[C@H]3C3=CC[C@@H]5[C@@]6(C)C[C@H](O)[C@H](O[C@@H]7O[C@H](CO)[C@@H](O)[C@H](O)[C@H]7O)C(CO)(CO)[C@@H]6CC[C@@]5(C)[C@]3(C)C[C@H]4O)OC[C@H](O)[C@@H]2O)[C@H](O)[C@H](O)[C@H]1O[C@@H]1OC[C@@H](O)[C@H](O[C@@H]2OC[C@](O)(CO)[C@H]2O)[C@H]1O", "note": "[PD, Platycodin D]", "values": [
      {"measurement": "LDLR protein stability after CHX, vs untreated cells", "setting": "[1]", "result": "significantly stable"},
      {"measurement": "cholesterol in the body", "setting": "[2]", "result": "effect of lowering cholesterol"},
      {"measurement": "cell viability", "setting": "[3]; 5 μM of PD", "result": 86, "unit": "%"},
      {"measurement": "cytotoxic effects on HepG2 cells", "setting": "[3]; PD 1 μM to 2.5 μM", "result": "no significant cytotoxic effects"},
      {"measurement": "proteolytic process of PCSK9", "setting": "[4]", "result": "do not affect"},
      {"measurement": "LDLR expression (Western blot)", "setting": "[5]; HepG2 cells", "result": "induce LDLR expression in HepG2 cells in a dose-dependent manner"},
      {"measurement": "increase in the uptake of LDL particles vs untreated control cells", "setting": "[6]", "result": 1.7, "unit": "fold"},
      {"measurement": "LDLR mRNA expression", "setting": "[7]", "result": "no significant effects"},
      {"measurement": "cell surface LDLR levels, as compared with a control", "setting": "[8]", "result": "1.2±0.07", "unit": "fold change"},
      {"measurement": "mRNA levels of IDOL", "setting": "[9]; HepG2, 24 h", "result": "significantly decreased"},
      {"measurement": "T0901317-induced increase of IDOL mRNA", "setting": "[9]; co-treatment PD 2.5 μM and T0901317 10 μM, 24 h", "result": "attenuated"},
      {"measurement": "LXR-α protein levels", "setting": "[10]", "result": "did not change"}
    ]},
    {"smiles": "O=S(=O)(c1ccccc1)N(CC(F)(F)F)c1ccc(C(O)(C(F)(F)F)C(F)(F)F)cc1", "note": "[T0901317, reference compound]", "values": [
      {"measurement": "mRNA levels of IDOL gene", "setting": "[9]; T0901317 10 μM, 24 h", "result": "increased"}
    ]},
    {"smiles": "CCC(C)(C)C(=O)O[C@H]1C[C@@H](C)C=C2C=C[C@H](C)[C@H](CC[C@@H]3C[C@@H](O)CC(=O)O3)[C@H]21", "note": "[simvastatin, reference compound]", "values": [
      {"measurement": "increase in hepatic LDLR levels vs untreated control cells", "setting": "[5]; simvastatin 1 μM alone, HepG2", "result": "approximately 2.2 fold"}
    ]}
  ]
}
